In paper PMC11335189, “Revealing molecular determinants governing mambalgin-3 pharmacology at acid-sensing ion channel 1 variants” (Cellular and Molecular Life Sciences: CMLS, 2024):
Positions of bridges follow the written chain, without caps; N, C: chain ends. No end group written: not given here.

Assays:
[1] = system: rASIC1a N291A; test: TEVC oocytes, rASIC1a N291A mutant; format: cell-based, rat; settings: concentration-response, conditioning pH 7.45, stimulating pH 6
Procedure: (§1) Two-electrode voltage-clamp (TEVC) experiments using Xenopus laevis oocytes were conducted as previously described. Briefly, oocytes were surgically removed from anaesthetised female frogs, then treated with collagenase (~ 1 mg/ml, Sigma type I) for 2 h under agitation at room temperature. cRNAs were synthesised using a mMessage mMachine T7 or SP6 transcription kit (Thermo Fisher Scientific Australia Pty Ltd, Scoresby, VIC, Australia) and injected into healthy stage V–VI oocytes at 0.2–20 ng per cell. […] Membrane currents were recorded 2–7 days after cRNA-injection under voltage-clamp at -60 mV (Axon Axoclamp 900 A, Molecular Devices, CA, USA) using two standard glass microelectrodes of 0.5–1 MΩ resistance when filled with 3 M KCl solution. […]
(§2) Specific to this work, the standard protocol was for oocytes to be conditioned at pH 7.45 and channels stimulated every 60 s using a 5 s pH 5 or 6 application, unless stated otherwise. […] Activation curves were determined by conditioning oocytes at pH 8 (Fig. 2e − g; and Fig. 5a and b) or 7.45 (Fig. 6; and Supplementary Fig. 2d and c) for 55 s and applying low pH stimuli from 7.25 to 5.0 for 5 s. Steady-state desensitisation (SSD) was determined by applying conditioning solutions of pH values from 8 to 6 for 115 s prior to stimulation by a pH drop to 5 for 5 s. […] Control pH-dependence curves were determined in the absence of any Ma-3. […]

[2] = target: T1, rASIC1b N324K (Rattus norvegicus, UniProt P55926, N291K); test: TEVC oocytes, rASIC1b N324K mutant; format: cell-based; settings: 300 nM Ma-3, conditioning pH 7.45; Hill fit, n = 5–6
T1 construct: expressed in transfected cells; host or cells: Xenopus laevis oocytes injected with cRNA
T1 sequence (P55926 1-559 isoform P55926-3 N324K): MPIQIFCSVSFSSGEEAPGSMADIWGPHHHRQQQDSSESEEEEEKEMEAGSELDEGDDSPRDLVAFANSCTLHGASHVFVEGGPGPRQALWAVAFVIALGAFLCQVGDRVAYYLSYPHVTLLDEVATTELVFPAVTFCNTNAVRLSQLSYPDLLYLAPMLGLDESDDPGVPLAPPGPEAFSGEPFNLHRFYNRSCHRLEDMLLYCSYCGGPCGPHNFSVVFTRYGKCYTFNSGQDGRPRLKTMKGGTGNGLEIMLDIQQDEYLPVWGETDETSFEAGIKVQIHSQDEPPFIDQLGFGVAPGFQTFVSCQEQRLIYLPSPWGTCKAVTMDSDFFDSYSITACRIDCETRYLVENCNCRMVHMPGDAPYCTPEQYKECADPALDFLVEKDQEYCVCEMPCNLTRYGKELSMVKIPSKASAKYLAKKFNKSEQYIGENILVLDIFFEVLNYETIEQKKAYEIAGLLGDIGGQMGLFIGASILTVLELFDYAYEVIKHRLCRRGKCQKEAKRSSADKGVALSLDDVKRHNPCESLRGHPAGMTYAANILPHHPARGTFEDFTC
Procedure: as §1, §2

[3] = system: rASIC1a: rASIC1b chimera C92; test: TEVC oocytes, rASIC1a: rASIC1b chimera C92; format: cell-based, rat; settings: conditioning pH 7.45, stimulating pH 5
Procedure: as §1, §2

H-SLKCYQHGKVVTCHRDMKFCYHNIGMPFRNLKLILQGCSSSCSETENNKCCSTDRCNK (disulfide 4-20, 13-38, 42-50, 51-56 (inferred)) [Ma-3, mambalgin-3]
effect of channel mutation on Ma-3 potency [1]: had no effect on potency | pH50 of activation in presence of Ma-3 [2]: 6.21 | activity of 300 nM Ma-3 [3]: only partially inhibited
